Here are results for 18 molecules from PMC9670909 (ACS Omega, 2022).

The target of one test is T1, Human recombinant MAO-A (Homo sapiens, UniProt P21397).
T1 sequence (P21397 1-527): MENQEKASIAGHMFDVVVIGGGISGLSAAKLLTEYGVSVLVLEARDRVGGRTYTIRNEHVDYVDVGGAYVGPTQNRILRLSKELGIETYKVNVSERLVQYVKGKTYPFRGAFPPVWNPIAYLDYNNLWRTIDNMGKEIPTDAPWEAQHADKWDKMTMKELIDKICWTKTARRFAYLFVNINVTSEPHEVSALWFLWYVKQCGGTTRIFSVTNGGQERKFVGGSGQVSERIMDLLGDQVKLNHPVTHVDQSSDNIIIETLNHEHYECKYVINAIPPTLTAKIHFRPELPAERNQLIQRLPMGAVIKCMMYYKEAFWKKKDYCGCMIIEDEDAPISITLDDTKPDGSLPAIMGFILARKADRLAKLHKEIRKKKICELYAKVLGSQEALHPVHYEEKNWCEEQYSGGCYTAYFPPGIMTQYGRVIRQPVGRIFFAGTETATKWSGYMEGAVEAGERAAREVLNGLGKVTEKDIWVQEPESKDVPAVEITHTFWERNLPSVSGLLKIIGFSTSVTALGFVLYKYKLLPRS
The test is described as follows: MAO-A inhibitory assay. In kind it is biochemical.

The next test concerns the target T2, MAO-B (Homo sapiens, UniProt P27338).
T2 sequence (P27338 1-520): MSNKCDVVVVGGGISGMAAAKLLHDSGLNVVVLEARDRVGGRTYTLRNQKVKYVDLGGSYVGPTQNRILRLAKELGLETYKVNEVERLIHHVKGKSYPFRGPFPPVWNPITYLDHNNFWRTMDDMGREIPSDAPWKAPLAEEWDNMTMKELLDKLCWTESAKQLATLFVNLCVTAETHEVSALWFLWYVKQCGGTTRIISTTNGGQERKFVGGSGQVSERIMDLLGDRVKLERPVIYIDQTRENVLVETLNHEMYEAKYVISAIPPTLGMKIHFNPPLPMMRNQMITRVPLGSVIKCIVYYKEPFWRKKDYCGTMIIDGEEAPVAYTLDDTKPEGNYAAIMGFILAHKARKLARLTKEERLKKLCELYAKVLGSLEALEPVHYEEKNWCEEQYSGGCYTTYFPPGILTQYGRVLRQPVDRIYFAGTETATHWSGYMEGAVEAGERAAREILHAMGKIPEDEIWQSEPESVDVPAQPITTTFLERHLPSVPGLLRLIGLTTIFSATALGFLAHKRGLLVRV
The test is described as follows: MAO-B inhibitory assay. The settings on record: MAO-B IC50, kynuramine 30 μM, potassium phosphate buffer pH 7.4, 37 °C, 20 min. In kind it is biochemical.

A value given as a limit tells only on which side of the number the result lay.

Consider `COc1cc(OCc2ccccc2)cc(C(=O)c2cc(C)cc(OC)c2OCc2ccccc2)c1Br` [compound 39, (5-(Benzyloxy)-2-bromo-3-methoxyphenyl) (2-(benzyloxy)-3-methoxy-5-methylphenyl)methanone], for which the IC50 at Human recombinant MAO-A and at MAO-B was greater than 100 µM throughout.
Consider `COCOc1cc(OCc2ccccc2)cc(C(=O)c2cc(C)cc(OC)c2OCc2ccccc2)c1Br` [compound 37, (5-(Benzyloxy)-2-bromo-3-(methoxymethoxy)phenyl) (2-(benzyloxy)-3-methoxy-5-methylphenyl)methanone], for which the IC50 on Human recombinant MAO-A came to 52.2 µM; at MAO-B it was 18.6 µM.
For `COc1cc(C)cc(C(=O)c2cc(OCc3ccccc3)cc(OCc3ccccc3)c2)c1OC` [compound 25, (3,5-Bis(benzyloxy)phenyl)(2,3-dimethoxy-5-methylphenyl)methanone], in that order: greater than 100 µM and greater than 100 µM.
For `COc1cc(C)cc(C(=O)c2cc(OCc3ccccc3)cc(O)c2Br)c1OCc1ccccc1` [compound 38, (5-(Benzyloxy)-2-bromo-3-hydroxyphenyl) (2-(benzyloxy)-3-methoxy-5-methylphenyl)methanone], in that order: 20.6 µM and 94.3 µM.
For `COc1cc(C)cc(C(=O)c2cc(O)cc(O)c2Br)c1O` [compound 31, (2-Bromo-3,5-dihydroxyphenyl)(2-hydroxy-3-methoxy-5-methylphenyl)methanone], the IC50 on Human recombinant MAO-A worked out at 14.8 µM; against MAO-B it was 43.7 µM.
Take `COc1cc(OC)c(Br)c(C(=O)c2cc(C)cc(OC)c2OC)c1` [compound 16, (2-Bromo-3,5-dimethoxyphenyl)(2,3-dimethoxy-5-methylphenyl)methanone]: the values for the IC50 at Human recombinant MAO-A and against MAO-B were 62.1 µM and greater than 100 µM, respectively.
Regarding `COCOc1cc(OC)cc(C(=O)c2cc(C)cc(OC)c2OC)c1C#N` [compound 34, 2-(2,3-Dimethoxy-5-methylbenzoyl)-4-methoxy-6-(methoxymethoxy)benzonitrile], the figures for the IC50 on Human recombinant MAO-A and at MAO-B were 24.8 µM and greater than 100 µM, respectively.
For `COCOc1cc(OC)cc(C(=O)c2cc(C)cc(OC)c2OC)c1Br` [compound 33, (2-Bromo-5-methoxy-3-(methoxymethoxy)phenyl)(2,3-dimethoxy-5-methylphenyl)methanone], in that order: 27.5 µM and greater than 100 µM.
In the case of `COc1cc(C)cc(C(=O)c2cc(OCc3ccccc3)cc(OCc3ccccc3)c2Br)c1OC` [compound 26, (3,5-Bis(benzyloxy)-2-bromophenyl)(2,3-dimethoxy-5-methylphenyl)methanone], the IC50 on Human recombinant MAO-A and against MAO-B was greater than 100 µM throughout.
With `COC(=O)c1c(OC)cc(OC)cc1C(=O)c1cc(C)cc(OC)c1OC` [compound 19, Methyl 2-(2,3-dimethoxy-5-methylbenzoyl)-4,6-dimethoxybenzoate], the IC50 on Human recombinant MAO-A and against MAO-B was greater than 100 µM each time.
In the case of `COc1cc(OC)c(C#N)c(C(=O)c2cc(C)cc(OC)c2OC)c1` [compound 17, 2-(2,3-Dimethoxy-5-methylbenzoyl)-4,6-dimethoxybenzonitrile], the IC50 at Human recombinant MAO-A and against MAO-B was greater than 100 µM throughout.
Consider `COc1cc(OC)c2c(c1)C(O)(c1cc(C)cc(OC)c1OC)OC2=O` (stereo not drawn) [compound 12, 3-(2,3-Dimethoxy-5-methylphenyl)-3-hydroxy-5,7-dimethoxyisobenzofuran-1(3H)-one], for which the figures for the IC50 at Human recombinant MAO-A and at MAO-B were greater than 100 µM and 52.8 µM, respectively.
In the same order, the values of `COCOc1cc(OC)cc2c1C(=O)NC2(O)c1cc(C)cc(OC)c1OC` (stereo not drawn) [compound 35, 3-(2,3-Dimethoxy-5-methylphenyl)-3-hydroxy-5-methoxy-7-(methoxymethoxy)isoindolin-1-one] are greater than 100 µM and greater than 100 µM.
On to `CCOC(=O)c1c(OC)cc(OC)cc1C(=O)c1cc(C)cc(OC)c1OC` [compound 21, Ethyl 2-(2,3-dimethoxy-5-methylbenzoyl)-4,6-dimethoxybenzoate], for which the IC50 at Human recombinant MAO-A was found to be 47 µM; against MAO-B, 61.6 µM.
In the case of `COc1cc(O)c2c(c1)C(O)(c1cc(C)cc(OC)c1OC)NC2=O` (stereo not drawn) [compound 36, 3-(2,3-Dimethoxy-5-methylphenyl)-3,7-dihydroxy-5-methoxyisoindolin-1-one], the results for the IC50 at Human recombinant MAO-A and at MAO-B were 31.9 µM and 38.4 µM, respectively.
In the same order, the values of `COc1cc(OCc2ccccc2)cc(C(=O)c2cc(C)cc(OC)c2OCc2ccccc2)c1C#N` [compound 40, (5-(Benzyloxy)-2-cyano-3-methoxyphenyl) (2-(benzyloxy)-3-methoxy-5-methylphenyl)methanone] are greater than 100 µM and greater than 100 µM.
Consider `COc1cc(C)cc(C(=O)c2cc(OCc3ccccc3)cc(OCc3ccccc3)c2C#N)c1OC` [compound 27, 2,4-Bis(benzyloxy)-6-(2,3-dimethoxy-5-methylbenzoyl)benzonitrile], for which the IC50 at Human recombinant MAO-A and at MAO-B was greater than 100 µM in each case.
On to `COCOc1cc(O)cc(C(=O)c2cc(C)cc(OC)c2O)c1Br` [compound 32, (2-Bromo-5-hydroxy-3-(methoxymethoxy)phenyl) (2-hydroxy-3-methoxy-5-methylphenyl)methanone], for which the figures for the IC50 on Human recombinant MAO-A and against MAO-B were 34.1 µM and 53.6 µM, respectively.

A word on the IC50: it is the midpoint of a concentration-inhibition curve.
